Legend:
Actinomyces viscosus = assay: Growth inhibition (OD610), single culture; assay type: cell-based; details: A. viscosus
Method: (§1) Further characterization was performed on planktonic oral microbes; Streptococcus sobrinus (Cariongenic—strain-SL1[CCM 6070, CNCTC 9/89] (ATCC cat. #33478), Streptococcus gordonii (Arginolytic—strain V288 (ATCC cat. #35105), Actinomyces viscosus) as well late colonizer (Gram −), pathogenic Aggregatibacter actinomycetemcomitans. All microbes were grown in their respective culture media: Streptococcus sobrinus and Streptococcus gordonii in BHI broth (BD, cat #237500), Aggregatibacter actinomycetemcomitans in BHI broth supplemented with 0.5% Yeast Extract (BD, cat #210941) and Actinomyces viscosus in Trypticase Soy Broth (BD, cat #211768) supplemented with 0.5% Yeast Extract (BD, cat #210941). Bacteria were cultured overnight in 37° C., 5% CO2 in approximately 20 ml of the appropriate culture broth. The following day, the OD610 was determined and solutions were diluted to 0.2 for the assay.
(§2) Test samples (Naringin, Naringin:Zinc complex and Naringin+Zinc Acetate (combination)) were prepared as a 100 mM stock solution followed by 2 fold serial dilution in 100% DMSO. Triclosan (positive control) was prepared as a 10% stock in 100% EtOH and 3 fold serial dilutions were done in 100% EtOH. […]
(§3) After approximately 12-13 hours of treatment, the plate was read at 610 nm using an Envision plate reader (PerkinElmer, Waltham, Mass.). The % inhibition relative to control was determined as follows: […]

[1] = test system: A. actinomycetemcomitans/A. viscosus; assay: Growth inhibition (OD610), co-culture; assay type: cell-based, A. actinomycetemcomitans and A. viscosus
Method: as §1, §2, §3

HaCaT cells = assay: Scratch assay, cell migration/proliferation "wound healing"; assay type: cell-based, human; details: 0.1 mM in 1% DMSO complete media
Method: Cell Culture: Spontaneously immortalized human keratinocyte line, HaCaT cells (AddexBio, San Diego, Calif., cat # T0020001) were cultured in 25 cm^2 vented, Falcon canted tissue culture flasks (VWR, Radnor, Pa., cat #353108) using complete DMEM media (Life Technologies, Grand Island, N.Y., cat #11965-092) supplemented with 10% characterized Hyclone FBS (VWR, Radnor, Pa., cat #1677-014) and 1× Penicillin—Streptomycin (Life Technologies, Grand Island, N.Y., cat #15140122). The cultures were incubated at 37° C. and 5% CO2 until the cells reached around 70-80% confluence. […]
Assay sample preparation: Samples were prepared in a final concentration of 1% DMSO in complete media. […] Two different batches of product 5 were tested at 0.15 mM, the average % Growth Relative to day 0 (d0) was determined and presented in FIG. 20. […]
Quantifying cell migration/wound healing: To explore the effects of various actives on cell migration/wound healing, the size of the freshly generated wound (the gap size) was determined following treatment using an inverted microscope (Olympus 1X71, Olympus Scientific Solutions Americas, Waltham, Mass.) and Cellsens Dimension 1.11 (Olympus Corporation, Waltham, Mass.) software and monitored until the gap closed completely. […] The mean of each arm was determined for each day of the study until the wound heal and no gap existed. […]

Structure (SMILES) | % Inhibition (Actinomyces viscosus; 0.175 mM) | % Inhibition ([1]; 0.175 mM) | wound healing, % growth relative to d0 (in words) (HaCaT cells) | inhibition at 500 µM (Actinomyces viscosus; Actinomyces viscosus, 0.5 mM (combination 0.325 mM + 0.175 mM, 0.5 mM total)) | inhibition at 500 µM ([1]; 0.5 mM (combination 0.5 mM total))
CC(=O)[O-].CC(=O)[O-].[Zn+2] [Zinc Acetate alone, Zinc (II) Acetate] | −1.84 ± 5.86% | 4.13 ± 6.89% |  |  | 
C[C@@H]1O[C@@H](O[C@H]2[C@H](Oc3cc(O)c4c(c3)O[C@H](c3ccc(O)cc3)CC4=O)O[C@H](CO)[C@@H](O)[C@@H]2O)[C@H](O)[C@H](O)[C@H]1O [Naringin] |  |  | not significantly different from that of Zinc acetate | -3.5 ± 4.1% | -0.03 ± 2.02%

Reference: patent US10548829B2, “Oral care compositions and methods of use” (priority 2016, dated 2020)
